# Data: patent US20160220710A1, “COMPOSITIONS AND METHODS FOR DELIVERING PHARMACEUTICAL AGENTS” (THE REGENTS OF THE UNIVERSITY OF MICHIGAN, priority 2015, published 2016)
# Tests used:
# [1] = tested on: carrageenan-based footpad-edema model; assay: Carrageenan footpad edema model, 8-week orally fed mice; format: in vivo; details: 8 week oral treatment
# Procedure: Experiments using the CFZ mice model were performed as published before (Baik et al., 2013, supra; Baik et al., 2012, supra; Keswani, R. K. et al. Mol. Pharm. 12, 2528-2536 (2015)). Mice (4 week old, male C57Bl/6) were purchased from the Jackson Laboratory (Bar Harbor, Me.) and acclimatised for 2 weeks in a specific-pathogen-free animal facility. All animal care was provided by the University of Michigan's Unit for Laboratory Animal Medicine (ULAM), and the experimental protocol was approved by the Committee on Use and Care of Animals. CFZ was dissolved in sesame oil (Roland, China, or Shirakiku, Japan) to achieve a concentration of 3 mg/ml, which was mixed with Powdered Lab Diet 5001 (PMI International, Inc., St. Louis, Mo.) to produce a 0.03% drug to powdered feed mix. A corresponding amount of sesame oil was mixed with chow for vehicle treatment (control).
# Mice Carrageenan Footpad Edema Model. Carrageenan (C1867, Sigma-Aldrich®, 2% in PBS, 30 μl) was injected into the right footpad while PBS (30 μl) was injected in the left footpad as a negative control. For preliminary testing of CFZ as an anti-inflammatory agent, 8-week orally fed mice (CFZ and control) were used. For testing of CFZ in soluble and microcrystal form, naïve 4-5 week old mice were injected with carrageenan first followed by injection of CFZ-A (2 mM in DMSO, 30 μl), CLDIs (2 mM equivalent in PBS, 30 μl) or CFZ-HCl (2 mM equivalent in PBS, 30 μl) at 48 h post carrageenan injection. For control experiments, CFZ-A, CLDIs and CFZ-HCl were injected into the right footpads of naïve 4-5 week old mice. DMSO was used as a control for CFZ-A in the left footpad whereas PBS was used as a control for CLDIs and CFZ-HCl. Footpads were measured (length—l, width—w, three thicknesses—t1, t2, t3) at various time points using a digital vernier calliper and changes in the swelling based on volume of the foot was calculated as per above.
# [2] = tested on: F4/80(+) peritoneal macrophages (PMΦ); assay: Flow cytometry of peritoneal exudate of CFZ-treated mice; format: in vivo
# Excerpt: Mice (4 week old, male C57Bl6) were purchased from the Jackson Laboratory (Bar Harbor, Me.) and acclimatized for 1 week in a specific-pathogen-free animal facility. Animal care was provided by the University of Michigan's Unit for Laboratory Animal Medicine (ULAM) and the experimental protocol was approved by the Committee on Use and Care of Animals in accordance with NIH guidelines. An oral diet containing CFZ was fed to mice as previously described (Baik J, et al., Antimicrob. Agents Chemother. 2013; 57:1218-30; Baik J, et al., PLoS One 2012; 7:e47494; Keswani R K, et al., Mol. Pharm. 2015:10). CFZ (C8895; Sigma-Aldrich, St. Louis, Mo., USA) was dissolved in sesame oil (Roland, China, or Shirakiku, Japan) to achieve a concentration of 3 mg/ml, which was mixed with Powdered Lab Diet 5001 (PMI International, Inc., St. Louis, Mo., USA) to produce a 0.03% drug to powdered feed mix. A corresponding amount of sesame oil was mixed with chow for vehicle treatment (control mice). On average, food consumption for a 25 g mouse was 3 g per day, resulting in 10 mg of bioavailable drug/kg per day. For CFZ treatment, the drug diet was administered for 8 weeks followed by regular chow for 8 weeks (washout phase).
# Peritoneal lavage was done as previously reported before and after the initiation of CFZ or vehicle treatment (1 week, 2 weeks, 4 weeks, 8 weeks and 16 weeks (8 weeks drug feed+8 weeks washout phase)) (16). Mice were euthanized as described above followed by sterilization of the outer skin with 70% ethanol. A small incision was made along the midline of the abdomen followed by abdominal skin retraction up to the thoracic boundary and the animal extremities to expose the intact peritoneal wall. A smaller incision was then made on the peritoneal wall to expose the cavity. The entire peritoneal cavity was washed with ice-cold sterile PBS+5% FBS (5-10 ml) and collected as peritoneal exudate. The exudate was then centrifuged (100×g for 5 min, 4° C.) and resuspended in 1.5 ml of PBS+5% FBS. Cells were counted using a hemocytometer for viable cells using Trypan Blue and for CLDI-containing cells.
# Peritoneal and alveolar lavage was performed as stated before to obtain the respective exudates. Purified Fc block CD16/32 (1 μl) was added for every 100,000 cells for analysis. For CLDI fluorescence signal experiments, cells were pelleted by centrifugation (100×g for 5 min) followed by resuspension in PBS+5% FBS (500 μl). For functional assays, antibodies—anti-F4/80-eFluor 450 (48-4801, Affymetrix eBioscience, San Diego, Calif., USA), anti-CD86-FITC (553691, BD Biosciences, San Jose, Calif., USA), anti-CD206-FITC (141704, BioLegend®, San Diego, Calif., USA), anti-CD11c-eFluor450 (48-0114, Affymetrix eBioscience) and anti-Ly6G-eFluor450 (48-5931, Affymetrix eBioscience) were added to the cell suspension at a loading of 1 μg/100,000 cells (1:10 volumetric ratio) and incubated in the dark (30 min, 4° C.). Following incubation, the samples were diluted with PBS and pelleted by centrifugation (100×g, 5 min). The supernatant was discarded and the pellet was re-suspended in 300 μl of PBS+2% FBS. Just prior to analysis, PI (5 μl per 1×10^6 cells) was added to the cells to assess viability. Sample measurements were done on a MoFlo® Astrios™ EQ. All gating and analysis was done on at least 10,000 live cells (PI(−) cell population) using FlowJo. CLDI(+) cells were gated either using 640 671/30 or 640 795/70. […] These cells also had extremely high side-scatter that were measured as saturated signals. This small sub-population of cells were not considered for evaluation of change of CD206 expression in the peritoneal macrophages.
smiles,measurement,setting,value
"CC(C)/N=c1\cc2n(-c3ccc(Cl)cc3)c3ccccc3nc-2cc1Nc1ccc(Cl)cc1 [CFZ, 3-(p-chloroanilino)-10-(p-chlorophenyl)-2, 10-dihydro-2-isopropyliminophenazine]",decrease of inflammation vs control diet,[1]; t=4 h,~3 fold
same,decrease of inflammation vs control diet,[1]; t=24 h,~14 fold
same,decrease of inflammation vs control diet,[1]; t=48 h,~2 fold
same,% CLDI(+) cells identified as F4/80(+) CD86(+),[2]; 4 weeks post-drug feeding,~38%
same,% CLDI(+) cells identified as F4/80(+) CD206(+),[2]; 4 weeks post-drug feeding,~20%
same,ratiometric CD86 median surface expression in CLDI(+) relative to CLDI(−),[2]; 4 weeks post-drug feeding,~1.17
same,% of F4/80(+) PMΦ that were CLDI(+),[2]; 8 weeks of washout,~25%
same,ratiometric CD86 median surface expression in CLDI(+) relative to CLDI(−),[2]; 8 weeks post-drug feeding,0.95
same,% CLDI(+) cells identified as F4/80(+) CD86(+),[2]; 8 weeks+8 weeks washout,~70%
same,% CLDI(+) cells identified as F4/80(+) CD206(+),[2]; 8 weeks+8 weeks washout,~81%
same,CLDI accumulation within F4/80(+) CD86(+) cells,[2]; 8 weeks+8 weeks washout,~95%
same,CLDI(+)% as a proportion of F4/80(+) CD206(+) cells,[2]; 8 weeks+8 weeks washout,~93%
same,% of F4/80(+) PMΦ that were CLDI(+),[2]; after 4 weeks of CFZ treatment,~38%
same,CLDI accumulation within F4/80(+) CD86(+) cells,[2]; after 4 weeks of CFZ treatment,~31%
same,CLDI(+)% as a proportion of F4/80(+) CD206(+) cells,[2]; after 4 weeks of CFZ treatment,~15%
same,% of F4/80(+) PMΦ that were CLDI(+),[2]; after 8 weeks of treatment,~61%
same,% of total CLDI(+) cells localized to F4/80(+) peritoneal macrophages,[2]; all measured time points,> 85%
